Earlier results as cited in patent US20240301505A1, “URINARY TRACT CANCER TREATMENT GUIDED BY MUTATIONAL LANDSCAPE” (BROWN UNIVERSITY, priority 2021, published 2024).

How the values were obtained:
CHK1 = molecular target: T1, CHK1 (Homo sapiens, UniProt O14757); settings: in combination with gemcitabine and irinotecan
T1 sequence (O14757 1-476): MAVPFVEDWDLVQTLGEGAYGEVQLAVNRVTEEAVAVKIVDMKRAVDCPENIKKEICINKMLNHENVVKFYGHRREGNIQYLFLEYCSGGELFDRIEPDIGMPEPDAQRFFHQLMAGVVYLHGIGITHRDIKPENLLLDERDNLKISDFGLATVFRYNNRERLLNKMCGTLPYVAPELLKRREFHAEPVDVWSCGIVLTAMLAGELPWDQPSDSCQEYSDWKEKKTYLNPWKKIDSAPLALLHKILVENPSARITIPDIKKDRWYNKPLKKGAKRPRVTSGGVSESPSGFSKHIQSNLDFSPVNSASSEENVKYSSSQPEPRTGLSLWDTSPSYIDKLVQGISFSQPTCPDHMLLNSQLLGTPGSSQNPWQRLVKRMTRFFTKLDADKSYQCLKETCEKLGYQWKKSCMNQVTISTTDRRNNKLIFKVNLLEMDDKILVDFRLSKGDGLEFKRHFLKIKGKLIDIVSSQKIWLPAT

[1] = tested on: Bladder tumors with ARID1A deficiencies
[2] = tested on: advanced breast cancer with mutations in PIK3CA, AKT1 or PTEN and/or PTEN loss; settings: monotherapy, patients with advanced breast cancer with mutations in PIK3CA
p21 protein expression = settings: upon treatment
CHK2 = CHK2 (Homo sapiens, UniProt O96017); settings: in combination with topotecan or camptothecin
Chain of CHK2 (O96017 whole entry): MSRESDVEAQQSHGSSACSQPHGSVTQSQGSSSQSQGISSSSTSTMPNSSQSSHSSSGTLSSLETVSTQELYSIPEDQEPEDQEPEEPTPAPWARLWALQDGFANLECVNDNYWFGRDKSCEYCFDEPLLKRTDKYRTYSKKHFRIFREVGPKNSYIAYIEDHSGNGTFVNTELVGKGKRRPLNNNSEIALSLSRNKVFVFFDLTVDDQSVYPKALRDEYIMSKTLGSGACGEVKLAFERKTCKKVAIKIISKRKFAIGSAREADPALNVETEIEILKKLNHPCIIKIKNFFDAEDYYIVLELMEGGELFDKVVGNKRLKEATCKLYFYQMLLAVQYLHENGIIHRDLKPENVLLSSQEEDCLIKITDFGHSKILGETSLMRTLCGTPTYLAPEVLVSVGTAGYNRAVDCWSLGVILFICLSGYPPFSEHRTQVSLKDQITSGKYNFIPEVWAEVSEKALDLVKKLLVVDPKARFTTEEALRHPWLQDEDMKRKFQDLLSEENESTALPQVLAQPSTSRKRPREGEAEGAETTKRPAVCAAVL

[3] = tested on: p21 and p53 protein expression; settings: accompanied by an increase in DNA damage and intracellular hydroxyl radicals

## Nc1ccc(-c2ccccc2)cc1 [4-ABP, 4-Aminobiphenyl]
G:C base pairs
  mutations induced occurring at G:C base pairs: 82.9%

## COc1cc(Nc2cnc(C#N)c(O[C@H](C)CN(C)C)n2)ncc1-c1cnn(C)c1 [CCT244747]
CHK1
  anti-tumor activity: showed anti-tumor activity

## CC[C@H](C)n1cc(C)c2c(C(=O)NCc3c(C)cc(C)[nH]c3=O)cc(-c3ccc(N4CCNCC4)nc3)cc21 [GSK-126]
[1]
  sensitivity of tumors: sensitive

## NC1(c2ccc(-c3nc4ccn5c(=O)[nH]nc5c4cc3-c3ccccc3)cc2)CCC1 [MK-2206]
[2]
  clinical activity: limited clinical activity

## CCCCN(CCCCO)N=O [N-butyl-N-(4-hydroxybutyl)nitrosamine]
p21 protein expression
  p21 protein expression: decrease in p21 protein expression

## C/C(=N\N=C(N)N)c1ccc(NC(=O)c2cc3cccc([N+](=O)[O-])c3[nH]2)cc1 [PV1019]
CHK2
  activity in combination: showed enhanced activity

## Nc1ccc(-c2ccc(N)cc2)cc1 [benzidine]
p21
  p21 mRNA levels: downregulate p21 mRNA levels
  p21 protein levels: decrease p21 protein levels

## C[As](C)(O)=S [dimethylmonothioarsinic acid]
[3]
  p21 and p53 protein expression: decrease in both p21 and p53 protein expression
